Laboratory results as given in patent US7405228B2, “Antibacterial cyano-(substituted)-methylenepiperidinophenyl oxazolidinones targeting multiple ribonucleoprotein sites” (Wockhardt Limited, priority 2002, dated 2008).

SMILES | melting point
CC(C)COC(=O)NC[C@H]1CN(c2ccc(N3CC/C(=C\C#N)C(F)C3)c(F)c2)C(=O)O1 (stereo partly drawn) [Example 58, (S)-N-{3-[4-(4-cyanomethylidene-3-fluoropiperidin-1-yl)-3-fluorophenyl]-2-oxo-oxazolidin-5-ylmethyl}-isobutylcarbamate] | 162 to 164 °C
CC1CN(c2ccc(N3C[C@H](CNC=O)OC3=O)cc2F)CC/C1=C\C#N (stereo partly drawn) [Example 62, (S)-N-{3-[4-(4-cyanomethylidene-3-methylpiperidin-1-yl)-3-fluorophenyl]-2-oxo-oxazolidin-5-ylmethyl}-formamide] | 98 to 100 °C
CC1CN(c2ccc(N3C[C@H](CNC(=O)CC#N)OC3=O)cc2F)CC/C1=C\C#N (stereo partly drawn) [Example 65, (S)-N-{3-[4-(4-cyanomethylidene-3-methylpiperidin-1-yl)-3-fluorophenyl]-2-oxo-oxazolidin-5-ylmethyl}-2-cyanoacetamide] | 102 to 104 °C
CC1CN(c2ccc(N3C[C@H](CNc4nccs4)OC3=O)cc2F)CC/C1=C\C#N (stereo partly drawn) [Example 66, (S)-2-{3-[4-(4-cyanomethylidene-3-methylpiperidin-1-yl)-3-fluorophenyl]-2-oxo-oxazolidin-5-ylmethylamino}-1,3-thiazole] | 75 to 77 °C
CC(=O)NC[C@H]1CN(c2ccc(N3CC/C(=C/C#N)C(C)(C)C3)c(F)c2)C(=O)O1 [Example 70, (S)-N-{3-[4-(4-cyanomethylidene-3,3-dimethylpiperidin-1-yl)-3-fluorophenyl]-2-oxo-oxazolidin-5-ylmethyl}-acetamide] | 150 to 152 °C
CC(C#N)=C1CCN(c2ccc(N3C[C@H](CNC(=O)CC#N)OC3=O)cc2F)CC1 [Example 75, (S)-N-{3-[4-(4-(1-cyanoethylidene)-piperidin-1-yl)-3-fluorophenyl]-2-oxo-oxazolidin-5-ylmethyl}-2-cyanoacetamide] | 194 to 196 °C
CC(C#N)=C1CCN(c2ccc(N3C[C@H](CNC(=O)CN)OC3=O)cc2F)CC1 [Example 76, (S)-N-{3-[4-(4-(1-cyanoethylidene)-piperidin-1-yl)-3-fluorophenyl]-2-oxo-oxazolidin-5-ylmethylamino}-carboxymethylamine] | 141 to 142 °C
CC(C#N)=C1CCN(c2ccc(N3C[C@H](CNC(=O)C(Cl)(Cl)Cl)OC3=O)cc2F)CC1 [Example 80, (S)-N-{3-[4-(4-(1-cyanoethylidene)-piperidin-1-yl)-3-fluorophenyl]-2-oxo-oxazolidin-5-ylmethyl}-trichloroacetamide] | 166 to 168 °C
CC(C#N)=C1CCN(c2ccc(N3C[C@H](CO)OC3=O)cc2F)CC1 [Example 82, (R)-{3-[4-(4-(1-cyanoethylidene)-piperidin-1-yl)-3-fluorophenyl]-2-oxo-oxazolidin-5-ylmethyl}-alcohol] | 100 to 102 °C
CCC(C#N)=C1CCN(c2ccc(N3C[C@H](CNC(=O)CBr)OC3=O)cc2F)CC1 [Example 92, (S)-N-{3-[4-(4-(1-cyanopropylidene)-piperidin-1-yl)-3-fluorophenyl]-2-oxo-oxazolidin-5-ylmethyl}-bromoacetamide] | 200 to 203 °C
CC(=O)NC[C@H]1CN(c2ccc(N3CCC(=C(C#N)n4ccnc4)CC3)c(F)c2)C(=O)O1 [Example 102, (S)-N-{3-[4-(4-(1-cyano-1-(imidazol-1-yl)-methylidene)-piperidin-1-yl)-3-fluorophenyl]-2-oxo-oxazolidin-5-ylmethyl}-acetamide] | 196 to 198 °C
CC(=O)NC[C@H]1CN(c2ccc(N3CCC(C(C#N)COS(C)(=O)=O)CC3)c(F)c2)C(=O)O1 (stereo partly drawn) [Example 134, (S)-N-{3-[4-(4-(1-cyano-2-methanesulphonyloxy)-ethylpiperidin-1-yl)-3-fluorophenyl]-2-oxo-oxazolidin-5-ylmethyl}-acetamide] | 136 to 138 °C
COC(=O)c1cn(C[C@H]2CN(c3ccc(N4CCC(C(C#N)CO)CC4)c(F)c3)C(=O)O2)nn1 (stereo partly drawn) [Example 150, (S)-1-{3-[4-(4-(1-cyano-2-hydroxy)-ethylpiperidin-1-yl)-3-fluorophenyl]-2-oxo-oxazolidin-5-ylmethyl}-4-methoxycarbonyl-1,2,3-triazole] | 204 to 206 °C
CCOC(=O)c1cn(C[C@H]2CN(c3ccc(N4CCC(C(C#N)CO)CC4)c(F)c3)C(=O)O2)nn1 (stereo partly drawn) [Example 151, (S)-1-{3-[4-(4-(1-cyano-2-hydroxy)-ethylpiperidin-1-yl)-3-fluorophenyl]-2-oxo-oxazolidin-5-ylmethyl}-4-ethoxycarbonyl-1,2,3-triazole] | 170 to 172 °C
CCOC(=O)c1cnnn1C[C@H]1CN(c2ccc(N3CCC(C(C#N)CO)CC3)c(F)c2)C(=O)O1 (stereo partly drawn) [Example 152, (S)-1-{3-[4-(4-(1-cyano-2-hydroxy)-ethylpiperidin-1-yl)-3-fluorophenyl]-2-oxo-oxazolidin-5-ylmethyl}-5-ethoxycarbonyl-1,2,3-triazole] | 76 to 78 °C

The next lines start with the values.

melting point | SMILES
116 to 118 °C | CS(=O)(=O)OC[C@H]1CN(c2ccc(N3CC/C(=C\C#N)C(F)C3)c(F)c2)C(=O)O1 (stereo partly drawn) [Example 59, (R)-{3-[4-(4-cyanomethylidene-3-fluoropiperidin-1-yl)-3-fluorophenyl]-2-oxo-oxazolidin-5-ylmethyl}-methanesulphonate]
152 to 153 °C | CC(=O)NC[C@H]1CN(c2ccc(N3CC/C(=C\C#N)C(C)C3)c(F)c2)C(=O)O1 (stereo partly drawn) [Example 63, (S)-N-{3-[4-(4-cyanomethylidene-3-methylpiperidin-1-yl)-3-fluorophenyl]-2-oxo-oxazolidin-5-ylmethyl}-acetamide]
94 to 96 °C | CC(=O)NC[C@H]1CN(c2ccc(N3CCC(=C(C)C#N)CC3)cc2)C(=O)O1 [Example 72, (S)-N-{3-[4-(4-(1-cyanoethylidene)-piperidin-1-yl)-phenyl]-2-oxo-oxazolidin-5-ylmethyl}-acetamide]
188 to 190 °C | CC(C#N)=C1CCN(c2ccc(N3C[C@H](CNC=O)OC3=O)cc2F)CC1 [Example 73, (S)-N-{3-[4-(4-(1-cyanoethylidene)-piperidin-1-yl)-3-fluorophenyl]-2-oxo-oxazolidin-5-ylmethyl}-formamide]
158 to 160 °C | CC(C#N)=C1CCN(c2ccc(N3C[C@H](CNC(=O)OCC(C)C)OC3=O)cc2F)CC1 [Example 81, (S)-N-{3-[4-(4-(1-cyanoethylidene)-piperidin-1-yl)-3-fluorophenyl]-2-oxo-oxazolidin-5-ylmethyl}-isobutylcarbamate]
137 to 138 °C | CC(C#N)=C1CCN(c2ccc(N3C[C@H](COc4ccon4)OC3=O)cc2F)CC1 [Example 83, (R)-3-{3-[4-(4-(1-cyanoethylidene)-piperidin-1-yl)-3-fluorophenyl]-2-oxo-oxazolidin-5-ylmethyloxy}-iso-oxazole]
148 to 150 °C | CC(=O)NC[C@H]1CN(c2ccc(N3CC/C(=C(/C)C#N)C(F)C3)c(F)c2)C(=O)O1 (stereo partly drawn) [Example 85, (S)-N-{3-[4-(4-(1-cyanoethylidene)-3-fluoropiperidin-1-yl)-3-fluorophenyl]-2-oxo-oxazolidin-5-ylmethyl}-acetamide]
148 to 150 °C | CC(=O)NC[C@H]1CN(c2ccc(N3CC/C(=C(\C)C#N)C(F)C3)c(F)c2)C(=O)O1 (stereo partly drawn) [Example 87, Z-(S)-N-{3-[4-(4-(1-cyanoethylidene)-3-fluoropiperidin-1-yl)-3-fluorophenyl]-2-oxo-oxazolidin-5-ylmethyl}-acetamide]
150 to 152 °C | CCC(C#N)=C1CCN(c2ccc(N3C[C@H](CNC(=O)C(Cl)(Cl)Cl)OC3=O)cc2F)CC1 [Example 91, (S)-N-{3-[4-(4-(1-cyanopropylidene)-piperidin-1-yl)-3-fluorophenyl]-2-oxo-oxazolidin-5-ylmethyl}-trichloroacetamide]
204 to 206 °C | CC(=O)NC[C@H]1CN(c2ccc(N3CCC(=C(C#N)n4ccnc4C)CC3)c(F)c2)C(=O)O1 [Example 103, (S)-N-{3-[4-(4-(1-cyano-1-(2-methyl-imidazol-1-yl)-methylidene)-piperidin-1-yl)-3-fluorophenyl]-2-oxo-oxazolidin-5-ylmethyl}-acetamide]
194 to 196 °C | CC(=O)NC[C@H]1CN(c2ccc(N3CCC(=C(C#N)n4cncn4)CC3)c(F)c2)C(=O)O1 [Example 104, (S)-N-{3-[4-(4-(1-cyano-1-(1,2,4-triazol-1-yl)-methylidene)-piperidin-1-yl)-3fluorophenyl]-2-oxo-oxazolidin-5-ylmethyl}-acetamide]
192 to 194 °C | CC(=O)NC[C@H]1CN(c2ccc(N3CCC(=C(C#N)CCO)CC3)c(F)c2)C(=O)O1 [Example 113, (S)-N-{3-[4-(4-(1-cyano-3-hydroxy-propylidene)-piperidin-1-yl)-3-fluorophenyl]-2-oxo-oxazolidin-5-ylmethyl}-acetamide]
110 to 112 °C | N#CCC1CCN(c2ccc(N3C[C@H](CO)OC3=O)cc2)CC1 [Example 124, (R)-{3-[4-(4-cyanomethyl-piperidin-1-yl)-phenyl]-2-oxo-oxazolidin-5-ylmethyl}-alcohol]
114 to 116 °C | CS(=O)(=O)OC[C@H]1CN(c2ccc(N3CCC(CC#N)CC3)cc2)C(=O)O1 [Example 125, (R)-{3-[4-(4-cyanomethyl-piperidin-1-yl)-phenyl]-2-oxo-oxazolidin-5-ylmethyl}-methanesulphonate]
210 to 212 °C | CC(=O)NC[C@H]1CN(c2ccc(N3CCC(C(C#N)n4ccnc4)CC3)c(F)c2)C(=O)O1 (stereo partly drawn) [Example 136, (S)-N-{3-[4-(4-(1-cyano-1-(imidazol-1-yl))-methylpiperidin-1-yl)-3-fluorophenyl]-2-oxo-oxazolidin-5-ylmethyl}-acetamide]
146 to 148 °C | N#CC(CO)C1CCN(c2ccc(N3C[C@H](COc4ccon4)OC3=O)cc2F)CC1 (stereo partly drawn) [Example 153, (R)-3-{3-[4-(4-(1-cyano-2-hydroxy)-ethylpiperidin-1-yl)-3-fluorophenyl]-2-oxo-oxazolidin-5-ylmethyloxy}-iso-oxazole]
144 to 146 °C | CS(=O)(=O)OC[C@H]1CN(c2ccc(N3CCC(C(C#N)CO)CC3)c(F)c2)C(=O)O1 (stereo partly drawn) [Example 154, (R)-{3-[4-(4-(1-cyano-2-hydroxy)-ethylpiperidin-1-yl)-3-fluorophenyl]-2-oxo-oxazolidin-5-ylmethyl}-methanesulphonate]
